According to patent US8981106B2, “Pyrimidinecarboxamides as CXCR2 modulators” (Syntrix Biosystems, Inc., priority 2009, dated 2015):

target: CXCR2 (Homo sapiens (Human), UniProt P25025); assay: Inhibition of GROα-mediated intracellular calcium release in human neutrophils (FLIPR-3 Ca2+ mobilization); assay type: cell-based; settings: human neutrophils, 25 nM GROα; read-out: IC50
Experimental: In Tables 1-5, the IC50 or EC50 values were determined using the following assay. This assay measures intracellular calcium release via fluorescence as an indication of CXCR2 receptor activation by the physiologic agonist GROα. The assay is a Ca^2+ mobilization assay that measures changes in intracellular Ca^2+ with a FlexStation II scanning fluorometer using a FLIPR-3 Calcium Assay Kit (Molecular Devices, Sunnyvale, Calif.). The procedure is as follows:
1. Human neutrophils were suspended in HBSS^− (without Ca^2+ and Mg^2+) containing 10 mM HEPES and FLIPR Calcium 3 dye (3.1×10^7 cells in total volume 1.7 mL).
2. […] As controls, 2 μL of DMSO (1% final concentration) were added to other 2 tubes.
3. Cells were incubated for 30 min at 37° C.
4. After dye loading, tubes were centrifuged at 6,000 rpm for 1 min, supernatant was removed and cell pellet was re-suspended in 200 μL of HBSS^+ (with Ca^2+ and Mg^2+) containing 10 mM HEPES.
5. The compound or DMSO (control) was added again at the same concentrations that were used during cell loading.
6. The cell suspension was aliquoted into a 96-well Reading Plate (Corning) in a volume of 90 μL (10^5 cells/well). The Compound Plate contained physiologic agonist (GROα in HBSS^−) or HBSS^− (control).
9. The maximum change in fluorescence, expressed in arbitrary units over baseline (Max-Min) was used to determine the GROα response. […] Therapeutic Activity
Briefly, human neutrophils were suspended in HBSS^− (without Ca^2+ and Mg^2+) containing 10 mM HEPES and FLIPR Calcium 3 dye (3.1×10^7 cells in total volume 1.7 mL). […] As controls, 2 μL of DMSO (1% final concentration) were added to 2 other tubes. Cells were incubated for 30 min at 37° C. After dye loading, tubes were centrifuged at 6,000 rpm for 1 min, supernatant was removed and the cell pellet was re-suspended in 200 μL of HBSS^+ (with Ca^2+ and Mg^2+) containing 10 mM HEPES. The test compound or DMSO (control) was added again at the same concentrations that were used during cell loading. The cell suspension was aliquoted into a 96-well Reading Plate (Corning) in a volume of 90 μL (10^5 cells/well). The Compound Plate contained agonist (GROα in HBSS^−) or HBSS^− (control).
The maximum change in fluorescence, expressed in arbitrary units over baseline (Max-Min), was used to determine the GROα response.

Chain of CXCR2 (P25025 whole entry): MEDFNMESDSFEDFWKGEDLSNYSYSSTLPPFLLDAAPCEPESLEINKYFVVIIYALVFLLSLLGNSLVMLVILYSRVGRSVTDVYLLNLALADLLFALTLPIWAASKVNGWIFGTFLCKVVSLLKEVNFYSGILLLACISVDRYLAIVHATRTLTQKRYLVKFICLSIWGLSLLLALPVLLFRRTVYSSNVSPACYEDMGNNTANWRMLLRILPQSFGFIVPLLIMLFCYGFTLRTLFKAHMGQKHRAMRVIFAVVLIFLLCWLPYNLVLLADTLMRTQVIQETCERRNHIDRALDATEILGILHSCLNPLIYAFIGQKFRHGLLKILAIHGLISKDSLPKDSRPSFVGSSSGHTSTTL

Row | SMILES | IC50
1 | O=C(Nc1ccc(F)cc1)c1ccc(SCc2cc3ccccc3n2S(=O)(=O)c2ccccc2)nc1 [Compound 79] | > 5 µM
2 | CCOP(=O)(CSc1ccc(C(=O)Nc2ccc(F)cc2)cn1)OCC [Compound 82] | > 10 µM
3 | O=C(Nc1ccc(F)cc1)c1ccc(SCS(=O)(=O)c2ccccc2)nc1 [Compound 83] | > 5 µM
4 | O=C(Nc1ccc(F)cc1)c1ccc(SC[N+](=O)[O-])nc1 [Compound 84] | > 10 µM
5 | O=C(CSc1ccc(C(=O)Nc2ccc(F)cc2)cn1)c1ccc(C(F)(F)F)cc1 [Compound 86] | > 10 µM
6 | O=C(CSc1ccc(C(=O)Nc2ccc(F)cc2)cn1)c1ccc(Br)cc1 [Compound 88] | > 10 µM
7 | O=C(CSc1ccc(C(=O)Nc2ccc(F)cc2)cn1)c1cccc(Br)c1 [Compound 89] | 0.852 ± 0.292 µM
8 | O=C(CSc1ccc(C(=O)Nc2ccc(F)cc2)cn1)c1ccc(Cl)c([N+](=O)[O-])c1 [Compound 94] | 0.016 µM
9 | CC(C)(C)c1cc(C(=O)CSc2ccc(C(=O)Nc3ccc(F)cc3)cn2)cc(C(C)(C)C)c1O [Compound 96] | > 10 µM
10 | CCCCCc1ccc(C(=O)CSc2ccc(C(=O)Nc3ccc(F)cc3)cn2)cc1 [Compound 97] | > 10 µM
11 | O=C(CSc1ccc(C(=O)Nc2ccc(F)cc2)cn1)c1ccc(-c2cccs2)cc1 [Compound 98] | > 10 µM
12 | O=C(CSc1ccc(C(=O)Nc2ccc(F)cc2)cn1)c1ccc(N2CCOCC2)cc1 [Compound 99] | > 5 µM
13 | COc1ccc(C(=O)CSc2ccc(C(=O)Nc3ccc(F)cc3)cn2)cc1 [Compound 100] | > 10 µM
14 | O=C(CSc1ccc(C(=O)Nc2ccc(F)cc2)cn1)c1ccc(-c2nn[nH]n2)cc1 [Compound 104] | 1.15 ± 0.47 µM
15 | CS(=O)(=O)c1ccc(C(=O)CSc2ccc(C(=O)Nc3ccc(F)cc3)cn2)cc1 [Compound 105] | > 10 µM
16 | O=C(CSc1ccc(C(=O)Nc2ccc(F)cc2)cn1)c1ccc(OC(F)(F)F)cc1 [Compound 106] | > 10 µM

Row | SMILES | IC50
17 | O=C(CSc1ccc(C(=O)Nc2ccc(F)cc2)cn1)c1ccc(OC(F)F)cc1 [Compound 107] | > 10 µM
18 | O=C(CSc1ccc(C(=O)Nc2ccc(F)cc2)cn1)c1cccc(C(F)(F)F)c1 [Compound 109] | > 10 µM
19 | O=C(CSc1ccc(C(=O)Nc2ccc(F)cc2)cn1)c1cc(C(F)(F)F)cc(C(F)(F)F)c1 [Compound 110] | > 10 µM
20 | CC1(C)CCC(C)(C)c2cc(C(=O)CSc3ccc(C(=O)Nc4ccc(F)cc4)cn3)ccc21 [Compound 111] | > 5 µM
21 | CCc1cc2c(cc1C(=O)CSc1ccc(C(=O)Nc3ccc(F)cc3)cn1)C(C)(C)CCC2(C)C [Compound 112] | 3.69 ± 0.72 µM
22 | O=C(Nc1ccc(F)cc1)c1ccc(SCC(=O)c2cc3ccc(Br)cc3o2)nc1 [Compound 119] | 0.981 ± 0.29 µM
23 | O=C(Nc1ccc(F)cc1)c1ccc(SCC(=O)c2csc3ccc(Br)cc23)nc1 [Compound 127] | 1.25 ± 0.32 µM
24 | Cc1ccc2sc(C(=O)CSc3ccc(C(=O)Nc4ccc(F)cc4)cn3)c(C)c2c1 [Compound 130] | > 10 µM
25 | Cc1c(C(=O)CSc2ccc(C(=O)Nc3ccc(F)cc3)cn2)sc2ccc(Cl)cc12 [Compound 132] | 0.78 ± 0.51 µM
26 | O=C(Nc1ccc(F)cc1)c1ccc(SCC(=O)c2cc(-c3ccc(Cl)cc3)no2)nc1 [Compound 134] | > 10 µM
27 | O=C(Nc1ccc(F)cc1)c1ccc(SCC(=O)c2cc(-c3ccc(Cl)c(Cl)c3)no2)nc1 [Compound 135] | > 10 µM
28 | O=C(Nc1ccc(F)cc1)c1ccc(SCC(=O)c2cc(-c3ccc(Cl)cc3Cl)no2)nc1 [Compound 136] | > 5 µM
29 | O=C(Nc1ccc(F)cc1)c1ccc(SCC(=O)c2cc(C(=O)O)no2)nc1 [Compound 138] | 0.081 ± 0.01 µM
30 | O=C(CSc1ccc(C(=O)Nc2ccc(F)cc2)cn1)c1ccc2c(c1)OCO2 [Compound 139] | > 5 µM
31 | O=C(CSc1ccc(C(=O)Nc2ccc(F)cc2)cn1)c1ccc2c(c1)OCCO2 [Compound 140] | 0.194 ± 0.052 µM

Now from value to compound:

Row | IC50 | SMILES
32 | > 10 µM | Cc1ccc(C(=O)CSc2ccc(C(=O)Nc3ccc(F)cc3)cn2)cc1 [Compound 85]
33 | > 5 µM | Cc1ccc(C(=O)CSc2ccc(C(=O)Nc3ccc(F)cc3)cn2)c(C)c1 [Compound 87]
34 | 0.21 ± 0.19 µM | O=C(CSc1ccc(C(=O)Nc2ccc(F)cc2)cn1)c1cccc(Cl)c1 [Compound 90]
35 | > 10 µM | O=C(CSc1ccc(C(=O)Nc2ccc(F)cc2)cn1)c1cccc(F)c1 [Compound 91]
36 | > 5 µM | Cc1cc(C(=O)CSc2ccc(C(=O)Nc3ccc(F)cc3)cn2)ccc1Cl [Compound 92]
37 | > 5 µM | O=C(CSc1ccc(C(=O)Nc2ccc(F)cc2)cn1)c1ccc(F)c(F)c1 [Compound 95]
38 | > 10 µM | N#Cc1ccc(C(=O)CSc2ccc(C(=O)Nc3ccc(F)cc3)cn2)cc1 [Compound 102]
39 | > 5 µM | N#Cc1cccc(C(=O)CSc2ccc(C(=O)Nc3ccc(F)cc3)cn2)c1 [Compound 103]
40 | > 10 µM | O=C(Nc1ccc(F)cc1)c1ccc(SCC(=O)c2ccccc2C(F)(F)F)nc1 [Compound 108]
41 | > 10 µM | O=C(Nc1ccc(F)cc1)c1ccc(SCC(=O)c2ccccn2)nc1 [Compound 113]
42 | > 5 µM | O=C(CSc1ccc(C(=O)Nc2ccc(F)cc2)cn1)c1cccnc1 [Compound 114]
43 | > 10 µM | O=C(CSc1ccc(C(=O)Nc2ccc(F)cc2)cn1)c1ccncc1 [Compound 115]
44 | > 5 µM | O=C(CSc1ccc(C(=O)Nc2ccc(F)cc2)cn1)c1ccc2occc2c1 [Compound 117]
45 | > 10 µM | O=C(Nc1ccc(F)cc1)c1ccc(SCC(=O)c2coc3ccccc23)nc1 [Compound 118]
46 | > 10 µM | O=C(Nc1ccc(F)cc1)c1ccc(SCC(=O)c2cc3ccccc3o2)nc1 [Compound 120]
47 | > 10 µM | O=C(CSc1ccc(C(=O)Nc2ccc(F)cc2)cn1)c1ccsc1 [Compound 121]
48 | > 5 µM | O=C(Nc1ccc(F)cc1)c1ccc(SCC(=O)c2cccs2)nc1 [Compound 122]
49 | > 10 µM | O=C(Nc1ccc(F)cc1)c1ccc(SCC(=O)c2ccc(-c3ccccc3)s2)nc1 [Compound 123]
50 | > 10 µM | O=C(Nc1ccc(F)cc1)c1ccc(SCC(=O)c2ccc(-c3ccccn3)s2)nc1 [Compound 124]
51 | > 10 µM | O=C(CSc1ccc(C(=O)Nc2ccc(F)cc2)cn1)c1ccc2sccc2c1 [Compound 125]
52 | > 5 µM | O=C(Nc1ccc(F)cc1)c1ccc(SCC(=O)c2csc3ccccc23)nc1 [Compound 126]
53 | 1.81 ± 0.52 µM | O=C(Nc1ccc(F)cc1)c1ccc(SCC(=O)c2cc3ccccc3s2)nc1 [Compound 128]
54 | > 10 µM | Cc1c(C(=O)CSc2ccc(C(=O)Nc3ccc(F)cc3)cn2)sc2ccccc12 [Compound 129]
55 | > 5 µM | Cc1onc(-c2ccccc2)c1C(=O)CSc1ccc(C(=O)Nc2ccc(F)cc2)cn1 [Compound 131]
56 | > 5 µM | O=C(Nc1ccc(F)cc1)c1ccc(SCC(=O)c2cc(-c3ccccc3)no2)nc1 [Compound 133]
57 | > 5 µM | O=C(Nc1ccc(F)cc1)c1ccc(SCC(=O)c2cccc3c2OCCO3)nc1 [Compound 141]

same assay, conditions: read-out: IC50

Row | SMILES | IC50
58 | O=C(CSc1ccc(C(=O)Nc2ccc(F)cc2)cn1)c1ccc(Cl)c(Cl)c1 [Compound 93] | 1.85 ± 0.55 µM
59 | O=C(CSc1ccc(C(=O)Nc2ccc(F)cc2)cn1)c1ccc([N+](=O)[O-])cc1 [Compound 101] | > 10 µM
60 | O=C(Nc1ccc(F)cc1)c1ccc(SCC(=O)c2ccco2)nc1 [Compound 116] | > 10 µM
